Earlier results, collected in patent US12678449B2, “Compositions including cannabis and avocado/soybean unsaponifiables and methods of use” (Nutramax Laboratories, Inc., priority 2019, dated 2026).
Like-named read-outs stand apart in the source and are kept apart here.

Legend:
[1] = beagle dogs, oral, single dose
[2] = human

In the case of C=C(C)[C@@H]1CCC(C)=C[C@H]1c1c(O)cc(CCCCC)cc1O [CBD, 2-[(1R,6R)-3-methyl-6-prop-1-en-2-ylcyclohex-2-en-1-yl]-5-pentylbenzene-1,3-diol], the “median maximal concentration of CBD in serum” value ([1]; 2 mg/kg CBD in olive oil) is listed as 102.3 ng/mL, the “median maximal concentration of CBD in serum” value ([1]; 8 mg/kg CBD in olive oil) is listed as 590.8 ng/mL and the CMAX ([2]; 10 mg dose of CBD (Guy et al.)) is listed as 2.47 ng/mL. For the same compound, the “mean plasma concentration of CBD” value ([2]; 1 h after oral intake of 5.4 mg dose (Nadulski et al.)) was 0.95 ng/mL and the “mean plasma level of CBD” value ([2]; oral administration of 40 mg of CBD (Agurell et al.)) was 5.5 ng/mL.
